Test results: paper PMC5501184 (Journal of medicinal chemistry, 2017)
Read-outs that look alike come from different tables or passages of the source.

Assays:
[1] = test system: cytochrome P450 (5 isozymes); settings: cited from earlier work
[2] = metabolomic study; cited from earlier work
mouse = settings: cited from earlier work
[3] = cited from earlier work
hDAT [4] = biological target: T1, hDAT (Homo sapiens, UniProt Q01959); settings: 10 μM; [^3H]24 binding, PDSP; ref Janowsky et al.[3]; cited from earlier work
mDAT = mDAT (Mus musculus, UniProt Q61327); assay: [^125I]23 binding to mDAT expressed in HEK-293 cells
hDAT [5] = biological target: T1, hDAT; settings: read-out: Kd of [^125I]23 at hDAT; no modulator; cited from earlier work

T1 sequence (Q01959 whole entry): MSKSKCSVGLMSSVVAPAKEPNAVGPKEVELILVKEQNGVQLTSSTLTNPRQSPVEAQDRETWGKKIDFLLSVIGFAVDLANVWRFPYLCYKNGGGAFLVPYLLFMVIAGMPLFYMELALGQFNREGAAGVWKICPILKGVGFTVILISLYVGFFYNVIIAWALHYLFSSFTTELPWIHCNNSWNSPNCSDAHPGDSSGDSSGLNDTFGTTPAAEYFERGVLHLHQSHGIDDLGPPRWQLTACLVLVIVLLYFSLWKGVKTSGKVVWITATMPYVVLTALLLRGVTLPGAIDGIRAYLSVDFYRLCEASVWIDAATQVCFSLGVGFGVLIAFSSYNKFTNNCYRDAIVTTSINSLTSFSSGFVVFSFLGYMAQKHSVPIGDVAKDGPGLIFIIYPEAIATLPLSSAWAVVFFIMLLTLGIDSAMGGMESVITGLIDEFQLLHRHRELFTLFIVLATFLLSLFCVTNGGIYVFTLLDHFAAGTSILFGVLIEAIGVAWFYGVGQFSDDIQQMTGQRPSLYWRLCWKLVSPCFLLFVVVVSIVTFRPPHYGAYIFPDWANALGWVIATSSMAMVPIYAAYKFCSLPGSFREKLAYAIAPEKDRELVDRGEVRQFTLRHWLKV
Sequence of mDAT (Q61327 whole entry): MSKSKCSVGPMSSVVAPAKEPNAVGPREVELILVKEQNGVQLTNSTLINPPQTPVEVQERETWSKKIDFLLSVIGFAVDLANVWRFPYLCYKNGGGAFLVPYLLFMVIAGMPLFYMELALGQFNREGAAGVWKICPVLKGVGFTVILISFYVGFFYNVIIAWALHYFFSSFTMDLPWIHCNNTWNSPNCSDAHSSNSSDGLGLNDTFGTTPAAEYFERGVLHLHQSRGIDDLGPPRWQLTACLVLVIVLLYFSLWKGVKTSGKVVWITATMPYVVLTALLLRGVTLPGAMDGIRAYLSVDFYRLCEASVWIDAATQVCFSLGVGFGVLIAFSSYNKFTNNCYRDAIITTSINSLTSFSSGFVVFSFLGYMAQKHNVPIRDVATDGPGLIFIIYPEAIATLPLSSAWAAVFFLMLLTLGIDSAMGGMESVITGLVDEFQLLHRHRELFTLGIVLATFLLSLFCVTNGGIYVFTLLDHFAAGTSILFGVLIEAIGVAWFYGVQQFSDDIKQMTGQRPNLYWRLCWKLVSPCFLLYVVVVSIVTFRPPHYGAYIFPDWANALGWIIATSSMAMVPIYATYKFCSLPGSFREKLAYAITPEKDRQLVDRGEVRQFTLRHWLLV

SMILES	inhibition of cytochrome P450 (5 isozymes) [1]	tolerability in vivo [2]	locomotor activity (mouse; 10 mg/kg)	locomotor activity (mouse; 30 mg/kg)	stability in the presence of liver microsomes, plasma and simulated body fluids [3]	hDAT Binding Inhibition, % of control (hDAT [4])	Kd (mDAT) [nM]	Kd (hDAT [5]) [nM]
CNC(=O)[C@@]12C[C@@H]1[C@@H](n1cnc3c(NC)nc(C#Cc4ccc(Cl)s4)nc31)[C@H](O)[C@@H]2O [compound 1, (1S,2R,3S,4R,5S)-4-(2-((5-chlorothiophen-2-yl)ethynyl)-6-(methylamino)-9H-purin-9-yl)-2,3-dihydroxy-N-methylbicyclo[3.1.0]hexane-1-carboxamide]	do not inhibit	well tolerated	did not significantly stimulate locomotor activity	reduced locomotor activity	stable	NE (no effect)	–	–
COC(=O)[C@H]1[C@@H](c2ccc(I)cc2)CC2CC[C@H]1N2C [compound 23, methyl (1R,2S,3S)-3-(4-iodophenyl)-8-methyl-8-azabicyclo[3.2.1]octane-2-carboxylate]	–	–	–	–	–	–	3.9	1.3
